Test results from patent publication US10787413B2, “Derivatives of curcuminoids and use thereof as an anticancer agent” (CHINA MEDICAL UNIVERSITY, priority 2016, dated 2020).

Assays:
MDA-MB-231 cells [1] = test: Immunofluorescence staining LC3B and p62; type: cell-based, human; settings: 5 μM and 10 μM, 24 h
Protocol: Cells were grown on sterile coverslips placed in a 6-well plate. After treatments, cells were fixed with 4% (w/v) paraformaldehyde and permeabilized with 0.2% (v/v) Triton X-100 in PBS. After blocking with 2% (w/v) bovine serum albumin in PBS, […] was detected using anti-LC3B and anti-p62 antibody followed by reaction with FITC or PE-conjugated secondary antibody (BD Biosciences). Coverslips were mounted on glass slides with Prolong Gold Antifade Reagent containing DAPI (Invitrogen), and fluorescence images were taken on a Leica Microsystems TCS SP2 Confocal Spectral microscope^26.

MDA-MB-231 cells [2] = test: cDNA microarray; type: cell-based, human
Protocol: The cells were incubated with or without 21a. After exposure, cell pellets were collected, and the total RNA from each treatment was purified using the Qiagen RNeasy Mini Kit (Qiagen, Valencia, Calif., USA). The RNA purity was determined to check the quality at 260/280 nm using a NanoDrop 1000 Spectrophotometer (Thermo Fisher Scientific, Wilmington, Del., USA). mRNA was amplified and labeled using the Gene-Chip WT Sense Target Labeling and Control Reagents kit (Affymetrix, Santa Clara, Calif., USA) for expression analysis. The synthesized cDNA was labeled with fluorescence and then hybridized for 17 h using AffymetrixGeneChip Human Gene 1.0 ST array (Affymetrix) to determine microarray hybridization following the manufacturer's protocols. The arrays were subsequently washed using Fluidics Station 450 (Affymetrix), stained with streptavidin-phycoerythrin (Gene-Chip Hybridization, Wash, and Stain kit, Affymetrix), and scanned on a GeneChip Scanner 3000 (Affymetrix). The localized concentrations of fluorescent molecules were quantitated and analyzed using Expression Console Software (Affymetrix) with default RMA parameters as previously described (Chang et al. 2012; Liu et al. 2013). […]

## COc1cc(/C=C/C(=O)/C=C(O)/C=C/c2ccc(OC(=O)C(C)(CO)CO)c(OC)c2)ccc1OC(=O)C(C)(CO)CO [Compound 21a, ((1E,3Z,6E)-3-Hydroxy-5-oxohepta-1,3,6-triene-1,7-diyl)bis(2-methoxy-4,1-phenylene) bis(3-hydroxy-2-(hydroxymethyl)-2-methylpropenoate)]
MDA-MB-231 cells [1]
  LC3B-positive and p62-positive cells: significantly increased
MDA-MB-231 cells [2]; at least 2.5 folds
  genes down-regulated: 28 genes
  genes up-regulated: 69 genes
MDA-MB-231 cells [2]; mRNA, MDA-MB-231 cells, 24-h treatment, ID PH_hs_0000057
  log2 (Ratio) ATF3: 3.698
MDA-MB-231 cells [2]; mRNA, MDA-MB-231 cells, 24-h treatment, ID PH_hs_0000076
  log2 (Ratio) IL12A: 4.587
MDA-MB-231 cells [2]; mRNA, MDA-MB-231 cells, 24-h treatment, ID PH_hs_0000156
  log2 (Ratio) DUSP2: 4.094
MDA-MB-231 cells [2]; mRNA, MDA-MB-231 cells, 24-h treatment, ID PH_hs_0000255
  log2 (Ratio) SRGN: 2.917
MDA-MB-231 cells [2]; mRNA, MDA-MB-231 cells, 24-h treatment, ID PH_hs_0000305
  log2 (Ratio) MMP10: 4.942
MDA-MB-231 cells [2]; mRNA, MDA-MB-231 cells, 24-h treatment, ID PH_hs_0000566
  log2 (Ratio) SLC25A25: 2.529
MDA-MB-231 cells [2]; mRNA, MDA-MB-231 cells, 24-h treatment, ID PH_hs_0000684
  log2 (Ratio) DNAJB9: 3.854
MDA-MB-231 cells [2]; mRNA, MDA-MB-231 cells, 24-h treatment, ID PH_hs_0000694
  log2 (Ratio) RND3: 2.626
MDA-MB-231 cells [2]; mRNA, MDA-MB-231 cells, 24-h treatment, ID PH_hs_0000852
  log2 (Ratio) SESN2: 3.324
MDA-MB-231 cells [2]; mRNA, MDA-MB-231 cells, 24-h treatment, ID PH_hs_0000866
  log2 (Ratio) OMA1: −2.613
MDA-MB-231 cells [2]; mRNA, MDA-MB-231 cells, 24-h treatment, ID PH_hs_0001262
  log2 (Ratio) SENP5: 2.748
MDA-MB-231 cells [2]; mRNA, MDA-MB-231 cells, 24-h treatment, ID PH_hs_0002492
  log2 (Ratio) SAT1: 3.366
MDA-MB-231 cells [2]; mRNA, MDA-MB-231 cells, 24-h treatment, ID PH_hs_0002700
  log2 (Ratio) OSGEN1: 3.513
MDA-MB-231 cells [2]; mRNA, MDA-MB-231 cells, 24-h treatment, ID PH_hs_0002812
  log2 (Ratio) C18orf25: 2.668
MDA-MB-231 cells [2]; mRNA, MDA-MB-231 cells, 24-h treatment, ID PH_hs_0002971
  log2 (Ratio) ZNF77: 2.665
MDA-MB-231 cells [2]; mRNA, MDA-MB-231 cells, 24-h treatment, ID PH_hs_0003147
  log2 (Ratio) PDGFC: −2.534
MDA-MB-231 cells [2]; mRNA, MDA-MB-231 cells, 24-h treatment, ID PH_hs_0003180
  log2 (Ratio) SMIM13: 2.646
MDA-MB-231 cells [2]; mRNA, MDA-MB-231 cells, 24-h treatment, ID PH_hs_0004421
  log2 (Ratio) PPP1R15A: 5.381
MDA-MB-231 cells [2]; mRNA, MDA-MB-231 cells, 24-h treatment, ID PH_hs_0004561
  log2 (Ratio) GEM: 3.997
MDA-MB-231 cells [2]; mRNA, MDA-MB-231 cells, 24-h treatment, ID PH_hs_0004751
  log2 (Ratio) MMP1: 3.219
MDA-MB-231 cells [2]; mRNA, MDA-MB-231 cells, 24-h treatment, ID PH_hs_0004988
  log2 (Ratio) LMNB1: −2.878
MDA-MB-231 cells [2]; mRNA, MDA-MB-231 cells, 24-h treatment, ID PH_hs_0006387
  log2 (Ratio) ZFAND2A: 6.274
MDA-MB-231 cells [2]; mRNA, MDA-MB-231 cells, 24-h treatment, ID PH_hs_0007383
  log2 (Ratio) F2R: −2.717
MDA-MB-231 cells [2]; mRNA, MDA-MB-231 cells, 24-h treatment, ID PH_hs_0009437
  log2 (Ratio) TOP2A: −3.052
MDA-MB-231 cells [2]; mRNA, MDA-MB-231 cells, 24-h treatment, ID PH_hs_0010276
  log2 (Ratio) DUSP1: 4.189
MDA-MB-231 cells [2]; mRNA, MDA-MB-231 cells, 24-h treatment, ID PH_hs_0010634
  log2 (Ratio) TXNIP|LOC101060503: −2.66
MDA-MB-231 cells [2]; mRNA, MDA-MB-231 cells, 24-h treatment, ID PH_hs_0012629
  log2 (Ratio) H1F0: −2.89
MDA-MB-231 cells [2]; mRNA, MDA-MB-231 cells, 24-h treatment, ID PH_hs_0014119
  log2 (Ratio) BRF2: 2.572
MDA-MB-231 cells [2]; mRNA, MDA-MB-231 cells, 24-h treatment, ID PH_hs_0014155
  log2 (Ratio) HSPA1B: 2.836
MDA-MB-231 cells [2]; mRNA, MDA-MB-231 cells, 24-h treatment, ID PH_hs_0014995
  log2 (Ratio) METTL7A: −3.653
MDA-MB-231 cells [2]; mRNA, MDA-MB-231 cells, 24-h treatment, ID PH_hs_0020147
  log2 (Ratio) CLK1: 2.804
MDA-MB-231 cells [2]; mRNA, MDA-MB-231 cells, 24-h treatment, ID PH_hs_0021974
  log2 (Ratio) DNAJC3: 3.011
MDA-MB-231 cells [2]; mRNA, MDA-MB-231 cells, 24-h treatment, ID PH_hs_0022919
  log2 (Ratio) CLCF1: 2.961
MDA-MB-231 cells [2]; mRNA, MDA-MB-231 cells, 24-h treatment, ID PH_hs_0023008
  log2 (Ratio) FRS2: 3.242
MDA-MB-231 cells [2]; mRNA, MDA-MB-231 cells, 24-h treatment, ID PH_hs_0023556
  log2 (Ratio) C21orf91: 2.733
MDA-MB-231 cells [2]; mRNA, MDA-MB-231 cells, 24-h treatment, ID PH_hs_0023711
  log2 (Ratio) HSPA5: 2.599
MDA-MB-231 cells [2]; mRNA, MDA-MB-231 cells, 24-h treatment, ID PH_hs_0023845
  log2 (Ratio) BBS2: −3.269
MDA-MB-231 cells [2]; mRNA, MDA-MB-231 cells, 24-h treatment, ID PH_hs_0023862
  log2 (Ratio) CBY1: −2.551
MDA-MB-231 cells [2]; mRNA, MDA-MB-231 cells, 24-h treatment, ID PH_hs_0023894
  log2 (Ratio) TRIB3: 2.584
MDA-MB-231 cells [2]; mRNA, MDA-MB-231 cells, 24-h treatment, ID PH_hs_0024155
  log2 (Ratio) CDKN1A: 2.904
MDA-MB-231 cells [2]; mRNA, MDA-MB-231 cells, 24-h treatment, ID PH_hs_0024236
  log2 (Ratio) ATP2A2: 2.548
MDA-MB-231 cells [2]; mRNA, MDA-MB-231 cells, 24-h treatment, ID PH_hs_0024315
  log2 (Ratio) DNAJB4: 3.075
MDA-MB-231 cells [2]; mRNA, MDA-MB-231 cells, 24-h treatment, ID PH_hs_0025319
  log2 (Ratio) C3orf52: 3.562
MDA-MB-231 cells [2]; mRNA, MDA-MB-231 cells, 24-h treatment, ID PH_hs_0025525
  log2 (Ratio) CLU: 3.198
MDA-MB-231 cells [2]; mRNA, MDA-MB-231 cells, 24-h treatment, ID PH_hs_0025966
  log2 (Ratio) CTDSP1: −2.552
MDA-MB-231 cells [2]; mRNA, MDA-MB-231 cells, 24-h treatment, ID PH_hs_0027152
  log2 (Ratio) RMND5A: 3.038
MDA-MB-231 cells [2]; mRNA, MDA-MB-231 cells, 24-h treatment, ID PH_hs_0027162
  log2 (Ratio) SLC3A2: 2.961
MDA-MB-231 cells [2]; mRNA, MDA-MB-231 cells, 24-h treatment, ID PH_hs_0027209
  log2 (Ratio) GADD45B: 2.665
MDA-MB-231 cells [2]; mRNA, MDA-MB-231 cells, 24-h treatment, ID PH_hs_0027843
  log2 (Ratio) FAM20C: −2.724
MDA-MB-231 cells [2]; mRNA, MDA-MB-231 cells, 24-h treatment, ID PH_hs_0027863
  log2 (Ratio) LRRC45: −2.718
